Measured values: patent publication US10561711B2, “Rapid action insulin formulations and pharmaceutical delivery systems” (Thermalin Inc., priority 2014, dated 2020)
Read-outs that look alike come from different tables or passages of the source.

Assay: Migration through porcine skin tissue under electric field (modified Franz apparatus)
Protocol: The effect of an electric field was explored on migration through the subcutis using fresh porcine abdominal skin tissue obtained from local abattoirs. To do this, a modified Franz apparatus was developed that could test up to 12 samples simultaneously (FIGS. 12A, 12B). Full-thickness porcine skin tissue plugs that were three cm in diameter were placed subcutis-down in individual wells over reservoirs containing cathodes below 2 ml of test solution. The device was then inverted to run the experiments.
Tissue and test solution were maintained at 37° C. using a heat lamp and monitored with a digital thermometer probe placed between the plexiglass plates, adjacent to the tissues. Anodes were inserted into conductive paste placed on the epidermal surface. Utilizing multiple electrophoresis power sources, 10V or 20V of electromotive potential was then run across each cathode-anode pair for one hour.
We tested the apparatus using a solution of bromophenol blue (BPB), a 0.67 kDa dye that appears blue above pH 4.6 and carries a negative charge near neutral pH similar to that of insulin. […]
One microscope slide was stained with H&E; an adjacent slide was stained with a Guinea pig polyclonal antibody (Ab) (Abcam ab7842), which was detected by a goat anti-Guinea pig polyclonal IgG H&L (Alexa Fluor® 594; Abcam ab150188).

O=S1(=O)OC(c2cc(Br)c(O)c(Br)c2)(c2cc(Br)c(O)c(Br)c2)c2ccccc21 [bromophenol blue]
migration through porcine skin layers with voltage applied (10 V, 37° C., about one hour, test solution on subcutaneous surface): dye penetrated through the subcutis in voltage-treated tissue

Cy5-insulin: human insulin conjugated to cyanine-5-NHS-ester fluorophore (P/N IS1-S5-1, Nanocs, Inc.)
migration through porcine skin layers with voltage applied: migration of the fluorescence-tagged insulin through the full skin thickness
